In US20250011881A1, “MYC-HSF1 DUAL AMPLIFICATION AS A BIOMARKER FOR CANCER TREATMENT” (The Trustees of Indiana University, priority 2023, published 2025):
Values joined by “and” are separate entries in the source; they are usually repeats but may differ in a detail not shown here. Identical values can stand only once. Counter-ions that a name gives are not always drawn. Like-named read-outs stand apart in the source and are kept apart here.

Tested on: ovarian cancer cells with (OVCAR8, OVCAR4) or without (OVSAHO, CAOV3) MYC-HSF1 amplification
Assay: Epigenetic inhibitor drug screen, cell viability (Cell Titer Blue)
Type: cell-based
[1] = 10 uM, 48 hrs, average relative cell viability (vs 1% DMSO) of non-amplified cells (OVSAHO, CAOV3) minus that of MYC-HSF1 amplified cells (OVCAR8, OVCAR4), positive = greater response in amplified cells
[2] = 10 uM, 48 hrs, average relative cell viability (vs 1% DMSO) of non-amplified cells (OVSAHO, CAOV3) minus that of MYC-HSF1 amplified cells (OVCAR8, OVCAR4), positive = greater response in amplified cells, 10 µM

SMILES | Non Amp - AMP (POC) 10 uM [1] [POC] | other results
COC(=O)[C@]12CCC(C)(C)C[C@H]1[C@H]1C(=O)C=C3[C@@]4(C)C=C(C#N)C(=O)C(C)(C)[C@@H]4CC[C@@]3(C)[C@]1(C)CC2 [Bardoxolone methyl] | 6.087 | 
CCS(=O)(=O)N1CC(CC#N)(n2cc(-c3ncnc4[nH]ccc34)cn2)C1 [Baricitinib (LY3009104, INCB028050), Baricitinib] | −2.641 | 
CCS(=O)(=O)N1CC(CC#N)(n2cc(-c3ncnc4[nH]ccc34)cn2)C1.O=P(O)(O)O [Baricitirib phosphate] | 7.373 | 
O=C(/C=C/c1cccc(S(=O)(=O)Nc2ccccc2)c1)NO [Belinostat (PXD101), Belinostat] | 12.55 | 
NC(=O)c1ccccc1 [Benzamide] | −5.576 | 
CCOC(=O)Nc1cc(-c2ccc(C)c(NS(C)(=O)=O)c2)nn2c(C)nnc12 [Bromosporine] |  | Non Amp - AMP (POC) 10 uM [2]: 15.35 POC and 21.43 POC
C=C1C(=O)O[C@@H](CCC)[C@@H]1C(=O)O [Butyrolacetone 3] |  | Non Amp - AMP (POC) 10 uM: 9.966 POC
Nc1ccc(S(=O)(=O)NCCc2ccccc2)cc1 [C-7280948] |  | Non Amp - AMP (POC) 10 uM [2]: 13.45 POC; Non Amp - AMP (POC) 10 uM (10 uM, 48 hrs, average relative cell viability (vs 1% DMSO) of non-amplified cells (OVSAHO, CAOV3) minus that of MYC-HSF1 amplified cells (OVCAR8, OVCAR4), positive = greater response in amplified cells, listed as C7280948, 10 µM): 0.5735 POC
CN(C)c1ccc(C(=O)NCCCCCC(=O)NO)cc1 [CAY10398] | 48.61 | 
COCCCn1c(N)c(C(=O)NC2CCCC2)c2nc3ccccc3nc21 [CAY10591] | 11.91 | 
CC(C)(C)OC(=O)Nc1ccc(-c2cc(C(=O)NCCCCCCC(=O)NO)no2)cc1 [CAY10603] |  | Non Amp - AMP (POC) 10 uM [2]: 43.89 POC and 29.05 POC
CCOC(=O)NCCCC(=O)NCCc1ccccc1 [CAY10683, Santacruzamate A] |  | Non Amp - AMP (POC) 10 uM [2]: 18.98 POC; Non Amp - AMP (POC) 10 uM (10 uM, 48 hrs, average relative cell viability (vs 1% DMSO) of non-amplified cells (OVSAHO, CAOV3) minus that of MYC-HSF1 amplified cells (OVCAR8, OVCAR4), positive = greater response in amplified cells, listed as Santacruzamate A (CAY10683), 10 µM): −0.9653 POC
O=C(Cc1ccccc1)Nc1ccc2oc(-c3ccc(Cl)cc3Cl)nc2c1 [CAY10722] | −11.2 | 
O=C(/C=C/c1cccc(C(=O)NO)c1)NO [CBHA] | 37.53 | 
CN(C)c1ccc(-c2nc3ncc(Cl)c(N4CCN(CC(=O)Nc5nccs5)CC4)c3[nH]2)cc1 [CCT129202] | 2.662 | 
Cc1cc(CN2CCN(c3c(Br)cnc4nc(-c5ccc(N6CCN(C)CC6)cc5)[nH]c34)CC2)no1 [CCT137690] | 9.076 | 
CN1CCN(c2cccc(Nc3nc4c(-c5ccc(S(C)(=O)=O)cc5)cccn4n3)c2)CC1 [CEP-33779] | 15.1 | 
CC(=O)Nc1ccc(C(=O)Nc2ccccc2N)cc1 [CI-994, Tacedinaline] |  | Non Amp - AMP (POC) 10 uM [2]: 25.18 POC; Non Amp - AMP (POC) 10 uM (10 uM, 48 hrs, average relative cell viability (vs 1% DMSO) of non-amplified cells (OVSAHO, CAOV3) minus that of MYC-HSF1 amplified cells (OVCAR8, OVCAR4), positive = greater response in amplified cells, listed as CI994 (Tacedinaline), 10 µM): 16.47 POC
Cl.NC(=O)[C@H](CCCN=C(N)CCl)NC(=O)c1ccccc1 [CI-Amidine (hydrochloride), CI-Amidine] | 5.451 | 
O=C(Nc1ccc(CN2CCOCC2)cc1)c1ccc(-c2cccc(Cl)c2)o1 [CID 2011756] |  | Non Amp - AMP (POC) 10 uM: 21.79 POC

SMILES | Non Amp - AMP (POC) 10 uM [1] [POC] | other results
CCS(=O)(=O)N1CCC([C@@H](C)n2c(C)c(C(=O)NCc3c(OC)cc(C)[nH]c3=O)c3ccccc32)CC1 [CPI-169] | 3.906 | 
C[C@@H]1CC(=O)Nc2cccc(-c3ccc4c(c3)c(-c3cnn(C)c3)nn4C)c2N1 [CPI-637] | −2.546 | 
Cl.Clc1ccc(-c2csc(NN=C3CCCC3)n2)cc1 [CPTH2 (hydrochloride)] | 6.251 | 
Br.CC1CC/C(=N\Nc2nc(-c3ccc(Cl)cc3)cs2)C1 (stereo not drawn) [CPTH6 (hydrobromide)] | 13.3 | 
C#Cc1cccc(Nc2ncnc3cc(OC)c(OCCCCCCC(=O)NO)cc23)c1 [CUDC-101] | 28.26 | 
COc1ccc(-c2nc(N3CCOCC3)c3sc(CN(C)c4ncc(C(=O)NO)cn4)cc3n2)cn1 [CUDC-907] | 8.159 | 
CN1CCCN(C(=O)c2cccc(-c3ccc(/C=C4/C(=O)Nc5ccc(Cl)cc54)o3)c2)CC1 [CX-6258] | −7.528 | 
Cc1nn(C)cc1CN1CCC(c2ccc(C(=O)Nc3ccccc3N)cc2)CC1 [CXD101] | 83.35 | 
Cc1nc(N)sc1-c1ccnc(Nc2ccc(N3CCOCC3)cc2)n1 [CYC116] | 8.383 | 
N#CCNC(=O)c1ccc(-c2ccnc(Nc3ccc(N4CCOCC4)cc3)n2)cc1 [CYT387] | −4.087 | 
N.N.O=C([O-])C1(C(=O)[O-])CCC1.[Pt+2] [Carboplatin] | −13.46 | 
Cn1cc(C(=O)Nc2ccc3c(c2)OCCO3)c2ccccc2c1=O [CeMMEC1] | −1.809 | 
CCS(=O)(=O)N1CCN(c2ccc(Nc3ncc(C(N)=O)c(NC4CC4)n3)cc2)CC1 [Cerdulatinib (PRT062070), Cerdulatinib] | −1.406 | 
COc1ccc2c(c[n+](C)c3c4cc5c(cc4ccc23)OCO5)c1OC [Chelerythrine Chloride] |  | Non Amp - AMP (POC) 10 uM [2]: −21.5 POC
COc1ccc2c(c[n+](C)c3c4cc5c(cc4ccc23)OCO5)c1OC [Chelerythrine] |  | Non Amp - AMP (POC) 10 uM [2]: −18.62 POC
Nc1cc(F)ccc1NC(=O)c1ccc(CNC(=O)/C=C/c2cccnc2)cc1 [Chidamide] | 33.85 | 
O=c1ccc2ccccc2o1 [Coumarin] | 5.809 | 
CC(C)(O)/C=C/C(=O)[C@](C)(O)[C@H]1[C@H](O)C[C@@]2(C)[C@@H]3CC=C4[C@@H](C=C(O)C(=O)C4(C)C)[C@]3(C)C(=O)C[C@]12C [Cucurbitacin I] |  | Non Amp - AMP (POC) 10 uM: 0.02387 POC
C=C1C[C@@]2(O)O[C@@]3(C[C@H]2C(C)C)[C@@H](C)CC[C@@H]13 [Curcumol] | −1.726 | 
CN1CCC(=C2c3ccccc3C=Cc3ccccc32)CC1 [Cyproheptadine (hydrochloride hydrate), Cyproheptadine] | 6.958 | 

SMILES | Non Amp - AMP (POC) 10 uM [1] [POC] | other results
Nc1ccn([C@@H]2O[C@H](CO)[C@@H](O)[C@@H]2O)c(=O)n1 [Cytarabine] | 1.9 | 
CCCCCCCCCCCCC/C=C/[C@@H](O)[C@@H](N)CO [D-erythro-Sphingosine (synthetic), D-erythro-Sphingosine] |  | Non Amp - AMP (POC) 10 uM: 2.713 POC
COC(=O)CNC(=O)C(=O)OC [DMOG] | −8.654 | 
CO[C@@H](C(=O)N1Cc2n[nH]c(NC(=O)c3ccc(N4CCN(C)CC4)cc3)c2C1)c1ccccc1 [Danusertib (PHA-739358), Danusertib] | −1.72 | 
O=C(O)CNC(=O)C1C(=O)N(C2CCCCC2)C(=O)N(C2CCCCC2)C1=O [Daprodustat(GSK1278863), Daprodustat] |  | Non Amp - AMP (POC) 10 uM: 0.9715 POC
CCCCCCCCCC(=O)N[C@@H](Cc1c[nH]c2ccccc12)C(=O)N[C@H](CC(N)=O)C(=O)N[C@@H](CC(=O)O)C(=O)N[C@@H]1C(=O)NCC(=O)N[C@@H](CCCN)C(=O)N[C@@H](CC(=O)O)C(=O)N[C@H](C)C(=O)N[C@@H](CC(=O)O)C(=O)NCC(=O)N[C@H](CO)C(=O)N[C@@H]([C@H](C)CC(=O)O)C(=O)N[C@@H](CC(=O)c2ccccc2N)C(=O)O[C@@H]1C [Daptomycin] | 3.207 | 
CC[C@@](C)(Nc1ccnc(-c2c[nH]c3ncccc23)n1)C(=O)NCC(F)(F)F [Decernotinib(VX-509), Decernotinib] | 7.322 | 
Oc1cc(O)c2cc(O)c(-c3cc(O)c(O)c(O)c3)[o+]c2c1 [Delphinidin (chloride), Delphinidin] | 9.89 | 
C[C@@H]1CC[C@@]2(OC1)O[C@H]1C[C@H]3[C@@H]4CC=C5C[C@@H](O)CC[C@]5(C)[C@H]4CC[C@]3(C)[C@H]1[C@@H]2C [Diosgenin] | 5.646 | 
CCCC(CCC)C(=O)O [Divalproex Sodium] |  | Non Amp - AMP (POC) 10 uM [2]: −6.451 POC
COc1cc2c(cc1OC)C(=O)C(CC1CCN(Cc3ccccc3)CC1)C2 (stereo not drawn) [Donepezil HCl] | −4.516 | 
Cl.Cl.c1cc(-c2cnn3cc(-c4ccc(OCCN5CCCCC5)cc4)cnc23)ccn1 [Dorsomorphin 2HCl] |  | Non Amp - AMP (POC) 10 uM: 15.62 POC
c1cc(-c2cnn3cc(-c4ccc(OCCN5CCCCC5)cc4)cnc23)ccn1 [Dorsomorphin (Compourd C), Dorsomorphin] | 7.913 | 
COc1cccc2c1C(=O)c1c(O)c3c(c(O)c1C2=O)C[C@@](O)(C(=O)CO)C[C@@H]3O[C@H]1C[C@H](N)[C@H](O)[C@H](C)O1 [Doxorubicin (Adriamycin) HCl, Doxorubicin] |  | Non Amp - AMP (POC) 10 uM [2]: 3.26 POC
COc1cccc2c1C(=O)c1c(O)c3c(c(O)c1C2=O)C[C@@](O)(C(=O)CO)C[C@@H]3O[C@H]1C[C@H](N)[C@H](O)[C@H](C)O1 [Doxorubicin] |  | Non Amp - AMP (POC) 10 uM [2]: 4.864 POC
Cc1cc(Cl)ccc1OCCCC(=O)NO [Droxinostat] | −21.53 | 
CS(=O)(=O)c1ccc(-c2cnc(NCc3ccco3)n3cnnc23)cc1 [EED226] | 32.64 | 
CCC(CC)n1ccc2c(C(=O)NCc3c(C)cc(C)[nH]c3=O)cc(C#N)cc21 [EI1] | 15.27 | 
Cc1cc(Nc2cc(N3CCN(C)CC3)nc(/C=C/c3ccccc3)n2)n[nH]1.O=C(O)C(O)C(O)C(=O)O [ENMD-2076 L-(+)-Tartaric acid] | −24.46 | 
Cc1cc(Nc2cc(N3CCN(C)CC3)nc(/C=C/c3ccccc3)n2)n[nH]1 [ENMD-2076] | −22.8 | 
